This assay addresses T1, human Glucose-dependent Insulinotropic Polypeptide Receptor (hGIPR) (Homo sapiens, UniProt P48546).
T1 sequence (P48546 22-466): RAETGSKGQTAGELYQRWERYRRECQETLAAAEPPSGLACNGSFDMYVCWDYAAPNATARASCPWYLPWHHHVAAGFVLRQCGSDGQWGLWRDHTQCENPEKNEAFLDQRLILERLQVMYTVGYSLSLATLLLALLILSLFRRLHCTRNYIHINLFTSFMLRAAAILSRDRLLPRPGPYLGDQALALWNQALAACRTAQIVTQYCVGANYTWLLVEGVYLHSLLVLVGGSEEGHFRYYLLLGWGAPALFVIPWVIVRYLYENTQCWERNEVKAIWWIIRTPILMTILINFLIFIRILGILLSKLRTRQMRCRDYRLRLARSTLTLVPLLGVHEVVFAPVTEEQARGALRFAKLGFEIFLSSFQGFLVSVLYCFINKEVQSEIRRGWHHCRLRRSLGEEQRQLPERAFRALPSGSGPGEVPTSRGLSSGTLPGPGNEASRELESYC
The assay is described as follows: Functional in vitro GIPR antagonist potency assay (intracellular cAMP, HTRF) in CHO-K1 cells stably expressing hGIPR. In kind it is cell-based. Particulars: 2 h compound incubation, then hGIP at estimated EC80 for 30 min. On the procedure: The functional in vitro antagonist potency for test compounds was determined by monitoring intracellular cyclic adenosine monophosphate (cAMP) levels in Chinese hamster ovary (CHO)-K1 cells stably expressing the human Glucose-dependent Insulinotropic Polypeptide Receptor (hGIPR). Following agonist activation, hGIPR associates with the G-protein complex causing the Gas subunit to exchange bound guanosine diphosphate (GDP) for guanosine triphosphate (GTP), followed by dissociation of the Gas-GTP complex. The activated Gas subunit can couple to downstream effectors to regulate the levels of second messengers or cAMP within the cell. Thereby, determination of intracellular cAMP levels allows for pharmacological characterization. Intracellular cAMP levels are quantitated using a homogenous assay utilizing the Homogeneous Time Resolved Fluorescence (HTRF) technology from Perkin Elmer. […] The two entities compete for binding to a monoclonal anti-cAMP antibody labeled with cryptate. […]
([…]: 5% CO2), with a micro-clime lid. […] ([…]: 5% CO2), after which intracellular cAMP levels were quantified and samples measured as described previously. […]
Data were analyzed using the ratio of fluorescence intensity at 620 and 665 nm for each well, extrapolated from the cAMP standard curve to express data as nanomolar (nM) cAMP for each well. […]

Usually IC50 stands for the concentration that gives 50% inhibition. With `CC(C)c1ccc(NC(=O)N2CCC[C@H]2C(=O)Nc2ccc3cc(C(=O)O)ccc3c2)cc1` [Compound 41A, 6-[(1-{[4-(propan-2-yl)phenyl]carbamoyl}prolyl)amino] naphthalene-2-carboxylic acid], the 50% inhibitory concentration (IC50) was 160 nM.

As for `CC(C)c1ccc(NC(=O)N2CCC[C@H]2C(=O)Nc2ccc(-c3ccc(C(=O)O)cc3)cc2)cc1` [Compound 44A, 4′-[(1-{[4-(propan-2-yl)phenyl]carbamoyl}prolyl)amino][1,1′-biphenyl]-4-carboxylic acid], the half-inhibitory concentration (IC50) was 6.8 nM.

The record behind these values is patent publication US20250235510A1, “COMBINATION THERAPY USING GLUCOSE-DEPENDENT INSULINOTROPIC POLYPEPTIDE RECEPTOR ANTAGONIST COMPOUNDS AND GLP-1 RECEPTOR AGONIST PEPTIDES” (Pfizer Inc., priority 2024, published 2025).
